{"source": "PubChem BioAssay AID272", "about": "(DTP/NCI, 2004)", "system": "Lewis lung carcinoma i.m., BDF1 mice, T/C %", "test": "NCI In Vivo Anticancer Drug Screen. Data for tumor model Lewis Lung Carcinoma (intramuscular) in B6D2F1 (BDF1) mice", "experimental": "The antitumor activity of compounds was measured in mice bearing transplantable tumors. Survival or tumor size were measured and the results are expressed as the measurement made in the treated group (T) divided by the measurement made in the vehicle treated control group (C). The tumor model used in this assay is Lewis Lung Carcinoma (intramuscular) in B6D2F1 (BDF1) mice", "note": "Values joined by “and” are separate entries in the source; they are usually repeats but may differ in a detail not shown here. Equal values may be shown once. Results filed as inconclusive are left out.", "data": [{"compound": "NC(=S)N/N=C/c1ccc(O)cn1", "values": [{"measurement": "T/C", "setting": "endpoint: mean tumor weight, dose: 5.0 mg/kg/injection, schedule: Q03HX024 (ip), vehicle: other, higher = larger tumour", "result": "60 % of control"}, {"measurement": "T/C", "setting": "endpoint: mean tumor weight, dose: 10.0 mg/kg/injection, schedule: Q03HX024 (ip), vehicle: other, higher = larger tumour", "result": "46 % of control"}, {"measurement": "T/C", "setting": "endpoint: mean tumor weight, dose: 50.0 mg/kg/injection, schedule: Q01DX009 (ip), vehicle: other, higher = larger tumour", "result": "15 % of control"}, {"measurement": "T/C", "setting": "endpoint: mean tumor weight, dose: 50.0 mg/kg/injection, schedule: Q01DX011 (ip), vehicle: other, higher = larger tumour", "result": "18 % of control and 40 % of control"}, {"measurement": "T/C", "setting": "endpoint: mean tumor weight, dose: 100.0 mg/kg/injection, schedule: Q01DX011 (ip), vehicle: other, higher = larger tumour", "result": "17 % of control"}, {"measurement": "T/C", "setting": "endpoint: mean tumor weight, dose: 200.0 mg/kg/injection, schedule: Q04DX003 (ip), vehicle: other, higher = larger tumour", "result": "47 % of control"}, {"measurement": "T/C", "setting": "endpoint: mean tumor weight, dose: 400.0 mg/kg/injection, schedule: Q04DX003 (ip), vehicle: other, higher = larger tumour", "result": "28 % of control"}, {"measurement": "T/C", "setting": "endpoint: median survival time, dose: 5.0 mg/kg/injection, schedule: Q03HX024 (ip), vehicle: other, higher = longer survival", "result": "108 % of control"}, {"measurement": "T/C", "setting": "endpoint: median survival time, dose: 10.0 mg/kg/injection, schedule: Q03HX024 (ip), vehicle: other, higher = longer survival", "result": "112 % of control"}, {"measurement": "T/C", "setting": "endpoint: median survival time, dose: 50.0 mg/kg/injection, schedule: Q01DX011 (ip), vehicle: other, higher = longer survival", "result": "113 % of control"}, {"measurement": "T/C", "setting": "endpoint: median survival time, dose: 100.0 mg/kg/injection, schedule: Q01DX009 (ip), vehicle: other, higher = longer survival", "result": "170 % of control"}, {"measurement": "T/C", "setting": "endpoint: median survival time, dose: 100.0 mg/kg/injection, schedule: Q01DX011 (ip), vehicle: other, higher = longer survival", "result": "103 % of control"}, {"measurement": "T/C", "setting": "endpoint: median survival time, dose: 200.0 mg/kg/injection, schedule: Q04DX003 (ip), vehicle: other, higher = longer survival", "result": "120 % of control"}]}, {"compound": "Cc1c2ccncc2c(C)c2c1[nH]c1ccccc12", "values": [{"measurement": "T/C", "setting": "endpoint: median survival time, dose: 1.56 mg/kg/injection, schedule: Q01DX011 (ip), vehicle: water, higher = longer survival", "result": "100 % of control"}, {"measurement": "T/C", "setting": "endpoint: median survival time, dose: 3.12 mg/kg/injection, schedule: Q01DX011 (ip), vehicle: water, higher = longer survival", "result": "100 % of control"}, {"measurement": "T/C", "setting": "endpoint: median survival time, dose: 6.25 mg/kg/injection, schedule: Q01DX011 (ip), vehicle: water, higher = longer survival", "result": "108 % of control"}]}, {"compound": "CNC(=S)N/N=C/C(C)=N/NC(=S)NC", "values": [{"measurement": "T/C", "setting": "endpoint: median survival time, dose: 0.2 micrograms/kg/injection, schedule: Q01DX011 (ip), vehicle: saline with Tween-80, higher = longer survival", "result": "100 % of control"}, {"measurement": "T/C", "setting": "endpoint: median survival time, dose: 0.5 micrograms/kg/injection, schedule: Q01DX011 (ip), vehicle: saline with Tween-80, higher = longer survival", "result": "102 % of control"}, {"measurement": "T/C", "setting": "endpoint: median survival time, dose: 1.0 micrograms/kg/injection, schedule: Q01DX011 (ip), vehicle: saline with Tween-80, higher = longer survival", "result": "102 % of control"}]}, {"compound": "NC(C(=O)O)C(F)C(=O)O", "note": "(stereo unspecified)", "values": [{"measurement": "T/C", "setting": "endpoint: median survival time, dose: 3.12 mg/kg/injection, schedule: Q01DX011 (ip), vehicle: saline, higher = longer survival", "result": "104 % of control"}, {"measurement": "T/C", "setting": "endpoint: median survival time, dose: 6.25 mg/kg/injection, schedule: Q01DX011 (ip), vehicle: saline, higher = longer survival", "result": "98 % of control"}, {"measurement": "T/C", "setting": "endpoint: median survival time, dose: 12.5 mg/kg/injection, schedule: Q01DX011 (ip), vehicle: saline, higher = longer survival", "result": "103 % of control"}]}, {"compound": "CC(SC(C)C(=O)NN)C(=O)NN", "note": "(stereo unspecified)", "values": [{"measurement": "T/C", "setting": "endpoint: mean tumor weight (est.), dose: 138.75 mg/kg/injection, schedule: Q01DX011 (ip), vehicle: saline, higher = larger tumour", "result": "80 % of control"}, {"measurement": "T/C", "setting": "endpoint: mean tumor weight (est.), dose: 277.5 mg/kg/injection, schedule: Q01DX011 (ip), vehicle: saline, higher = larger tumour", "result": "87 % of control"}, {"measurement": "T/C", "setting": "endpoint: mean tumor weight (est.), dose: 555.0 mg/kg/injection, schedule: Q01DX011 (ip), vehicle: saline, higher = larger tumour", "result": "76 % of control"}, {"measurement": "T/C", "setting": "endpoint: median survival time, dose: 138.75 mg/kg/injection, schedule: Q01DX011 (ip), vehicle: saline, higher = longer survival", "result": "90 % of control"}, {"measurement": "T/C", "setting": "endpoint: median survival time, dose: 277.5 mg/kg/injection, schedule: Q01DX011 (ip), vehicle: saline, higher = longer survival", "result": "96 % of control"}, {"measurement": "T/C", "setting": "endpoint: median survival time, dose: 555.0 mg/kg/injection, schedule: Q01DX011 (ip), vehicle: saline, higher = longer survival", "result": "90 % of control"}]}, {"compound": "OCC1OC(n2cnc3c(=S)nc[nH]c32)C(O)C1O", "note": "(stereo unspecified)", "values": [{"measurement": "T/C", "setting": "endpoint: mean tumor weight (est.), dose: 1.56 mg/kg/injection, schedule: Q01DX011 (ip), vehicle: other, higher = larger tumour", "result": "100 % of control"}, {"measurement": "T/C", "setting": "endpoint: mean tumor weight (est.), dose: 3.12 mg/kg/injection, schedule: Q01DX011 (ip), vehicle: other, higher = larger tumour", "result": "78 % of control"}, {"measurement": "T/C", "setting": "endpoint: mean tumor weight (est.), dose: 25.0 mg/kg/injection, schedule: Q01DX011 (ip), vehicle: other, higher = larger tumour", "result": "96 % of control"}, {"measurement": "T/C", "setting": "endpoint: median survival time, dose: 0.78 mg/kg/injection, schedule: Q01DX011 (ip), vehicle: other, higher = longer survival", "result": "108 % of control"}, {"measurement": "T/C", "setting": "endpoint: median survival time, dose: 1.56 mg/kg/injection, schedule: Q01DX011 (ip), vehicle: other, higher = longer survival", "result": "114 % of control and 120 % of control"}, {"measurement": "T/C", "setting": "endpoint: median survival time, dose: 3.12 mg/kg/injection, schedule: Q01DX011 (ip), vehicle: other, higher = longer survival", "result": "95 % of control"}, {"measurement": "T/C", "setting": "endpoint: median survival time, dose: 6.25 mg/kg/injection, schedule: Q01DX011 (ip), vehicle: other, higher = longer survival", "result": "110 % of control"}, {"measurement": "T/C", "setting": "endpoint: median survival time, dose: 12.5 mg/kg/injection, schedule: Q01DX011 (ip), vehicle: other, higher = longer survival", "result": "112 % of control"}]}, {"compound": "S=c1nc[nH]c2nc[nH]c12", "values": [{"measurement": "T/C", "setting": "endpoint: mean tumor weight, dose: 10.0 mg/kg/injection, schedule: Q01DX011 (ip), vehicle: other, higher = larger tumour", "result": "77 % of control"}, {"measurement": "T/C", "setting": "endpoint: mean tumor weight, dose: 20.0 mg/kg/injection, schedule: Q01DX011 (ip), vehicle: other, higher = larger tumour", "result": "77 % of control"}, {"measurement": "T/C", "setting": "endpoint: mean tumor weight, dose: 40.0 mg/kg/injection, schedule: Q01DX011 (ip), vehicle: other, higher = larger tumour", "result": "89 % of control"}, {"measurement": "T/C", "setting": "endpoint: mean tumor weight, dose: 65.0 mg/kg/injection, schedule: Q01DX011 (ip), vehicle: other, higher = larger tumour", "result": "58 % of control"}, {"measurement": "T/C", "setting": "endpoint: median survival time, dose: 4.0 mg/kg/injection, schedule: Q01DX011 (ip), vehicle: other, higher = longer survival", "result": "91 % of control and 108 % of control"}, {"measurement": "T/C", "setting": "endpoint: median survival time, dose: 8.0 mg/kg/injection, schedule: Q01DX011 (ip), vehicle: other, higher = longer survival", "result": "91 % of control and 111 % of control"}, {"measurement": "T/C", "setting": "endpoint: median survival time, dose: 10.0 mg/kg/injection, schedule: Q01DX011 (ip), vehicle: other, higher = longer survival", "result": "110 % of control"}, {"measurement": "T/C", "setting": "endpoint: median survival time, dose: 16.0 mg/kg/injection, schedule: Q01DX011 (ip), vehicle: other, higher = longer survival", "result": "93 % of control"}, {"measurement": "T/C", "setting": "endpoint: median survival time, dose: 20.0 mg/kg/injection, schedule: Q01DX011 (ip), vehicle: other, higher = longer survival", "result": "112 % of control"}, {"measurement": "T/C", "setting": "endpoint: median survival time, dose: 32.0 mg/kg/injection, schedule: Q01DX011 (ip), vehicle: other, higher = longer survival", "result": "98 % of control"}]}]}
